Measurements published in US12441739B2, “Glucagon receptor antagonist and use thereof” (LANZHOU UNIVERSITY, priority 2021, dated 2025).
pIC50: −log10 of the molar value. Where “and” joins values, the source holds several entries; their conditions need not be identical. Equal values may be shown once.

Target: T1, human glucagon receptor (hGCGR) (Homo sapiens, UniProt P47871)
T1 construct: host or cells: HEK293
Assay: HTRF second messenger cAMP response experiment (called cell viability test) in HEK293 cells with glucagon peptide segment
Type: cell-based
Details: for inhibitory activity of glucagon receptor (in words, from cAMP response curves): FIG. 5 / FIG. 14
Procedure: In order to determine the antagonistic activity of the compound A on the glucagon receptor in the above embodiments, a cell viability test is carried out. The specific implementation is as follows.
A known human glucagon receptor (hGCGR) antagonist drug is selected as a positive control, and the compound A in the above embodiments, a glucagon peptide segment (that is, human full-length glucagon), and human embryonic kidney cells containing target receptor molecules are mixed. The glucagon peptide segment binds to hGCGR to activate the hGCGR signaling pathway and release the second messenger cAMP. The compound A acts as an antagonist to inhibit the activity of hGCGR.
In an exemplary embodiment, a known hGCGR antagonist drug (L-168,049) is selected as a positive control. […] In addition, in view of the human glucagon receptor on the cell membrane of human embryonic kidney cells HEK293, HEK293 is used to test the drug activity of the human glucagon antagonist. In this embodiment, different concentrations of compound A of the present disclosure and the positive control are respectively mixed with glucagon peptide segments and HEK293 cells, the second messenger cAMP is detected through homogeneous time resolved fluorescence (HTRF), and a half maximal inhibitory concentration value of each compound is calculated according to the intensity value of HTRF.
(§1) In an exemplary embodiment, the activity of the compound A is tested using the HTRF technique. Specifically, after activation of the glucagon receptor by the glucagon peptide segment, the second messenger cAMP is released from the glucagon receptor cells, the second messenger cAMP may be detected by HTRF, and the half maximal inhibitory concentration (IC50) of the tested compound may be calculated according to the fluorescence intensity.
In an exemplary embodiment, 11 identical concentration gradients are set for the compounds A1 and A2 respectively. The activities of the compounds A1 and A2 are determined by the HTRF second messenger cAMP response experiment in triplicate.
Step S910. Select an antagonist drug of hGCGR as a positive control, and mix each target drug small molecule, a glucagon peptide segment, and human embryonic kidney cells containing the target receptor molecule. The glucagon peptide segment binds to hGCGR to activate the hGCGR signaling pathway and release the second messenger cAMP. The target drug molecule acts as an antagonist to inhibit the activity of hGCGR.
In an exemplary embodiment, an antagonist drug (such as L-168,049) of hGCGR is selected as a positive control. In addition, in view of the human glucagon receptor on the cell membrane of human embryonic kidney cells (such as HEK293), HEK293 may be used to test the drug activity of the human glucagon antagonist. The target drug small molecule, the glucagon peptide segment, and the HEK293 cells containing the target receptor molecule are mixed. The glucagon peptide segment is used to bind to hGCGR to activate the hGCGR signaling pathway and promote the release of the second messenger cAMP. The target drug molecule acts as an antagonist to inhibit the activity of hGCGR.
Step S920. Detect the second messenger cAMP through HTRF, and determine a half maximal inhibitory concentration value of each target drug small molecule according to an intensity value of HTRF.
as §1, with “each target drug small molecule (such as 30 target drug small molecules shown in Table 2)” for “the compound A”, “tested by” for “tested”, “drug molecule” for “tested compound”, “intensity. […]” for “intensity.”

[1] = concentration gradient LogM −5.477121, HEK293 cells, glucagon peptide segment, HTRF cAMP, triplicate columns
[2] = concentration gradient LogM −8.339849, HEK293 cells, glucagon peptide segment, HTRF cAMP, triplicate columns
[3] = concentration gradient LogM −9.294091, HEK293 cells, glucagon peptide segment, HTRF cAMP, triplicate columns
[4] = concentration gradient LogM −6.908485, HEK293 cells, glucagon peptide segment, HTRF cAMP, triplicate columns
[5] = concentration gradient LogM −7.862728, HEK293 cells, glucagon peptide segment, HTRF cAMP, triplicate columns
[6] = concentration gradient LogM −7.385606, HEK293 cells, glucagon peptide segment, HTRF cAMP, triplicate columns
[7] = concentration gradient LogM −8.81697, HEK293 cells, glucagon peptide segment, HTRF cAMP, triplicate columns
[8] = concentration gradient LogM −5.954243, HEK293 cells, glucagon peptide segment, HTRF cAMP, triplicate columns
[9] = concentration gradient LogM −5, HEK293 cells, glucagon peptide segment, HTRF cAMP, triplicate columns

T1 sequence (P47871 26-477): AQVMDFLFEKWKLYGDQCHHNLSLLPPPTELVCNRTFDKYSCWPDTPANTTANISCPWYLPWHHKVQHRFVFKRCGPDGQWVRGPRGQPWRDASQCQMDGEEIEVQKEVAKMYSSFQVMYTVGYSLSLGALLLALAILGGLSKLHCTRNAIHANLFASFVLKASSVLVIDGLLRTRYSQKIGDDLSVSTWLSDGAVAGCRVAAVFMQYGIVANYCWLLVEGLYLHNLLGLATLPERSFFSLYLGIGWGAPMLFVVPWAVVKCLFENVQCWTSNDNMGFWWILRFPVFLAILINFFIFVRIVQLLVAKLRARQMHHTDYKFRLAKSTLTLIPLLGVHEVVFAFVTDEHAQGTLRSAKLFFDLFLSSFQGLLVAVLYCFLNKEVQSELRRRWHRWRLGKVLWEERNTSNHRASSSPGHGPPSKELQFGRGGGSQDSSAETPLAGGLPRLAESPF

SMILES: NS(=O)(=O)c1ccc(NC(=S)NNC(=S)NC2CCCCC2)cc1 [Compound C1]
- pIC50: < 5.00
- Inhibition percentage [1]: −14.4564% and −9.717% and −14.5956%
- Inhibition percentage [2]: 23.36% and 11.78% and 18.98%

SMILES: O=S(=O)(NCCc1ccccc1)c1ccc(NC(=S)Nc2ccccc2)cc1 [Compound C2]
- pIC50: < 5.00
- Inhibition percentage [3]: 1.325% and 0.8006% and 5.407%

SMILES: COc1ccc(C(=O)NC(=S)Nc2ccc(NC(=S)NC(C)=O)cc2)cc1Cl [Compound C3]
- pIC50: < 5.00
- Inhibition percentage [4]: 5.05% and 4.705% and 12.02%

SMILES: O=S(=O)(Nc1ccc(Cl)cc1)c1ccc(NC(=S)Nc2ccccc2)cc1 [Compound C4]
- pIC50: < 5.00

SMILES: O=C(NCCCCCCNC(=O)NCc1cccnc1)NCc1cccnc1 [Compound C5]
- pIC50: < 5.00

SMILES: O=C(CCCCC(=O)NNC(=S)Nc1ccc(Br)cc1)NNC(=S)Nc1ccc(Br)cc1 [Compound C6]
- pIC50: < 5.00
- Inhibition percentage [5]: −28.7792% and −19.4453% and −24.9236%

SMILES: O=C(NNC(=S)Nc1ccccc1)[C@H](O)[C@@H](O)C(=O)NNC(=S)Nc1ccccc1 [Compound C7]
- pIC50: < 5.00
- Inhibition percentage [5]: −25.3779% and −25.5195% and −24.1306%
- Inhibition percentage [3]: −8.847% and −15.2446% and −18.5536%

SMILES: CCC(=O)NC(=S)Nc1ccc(NC(=S)NC(=O)c2ccccc2OC)cc1 [Compound C8]
- pIC50: < 5.00

SMILES: CCC(=O)NC(=S)Nc1ccc(NC(=S)NC(=O)c2cccc(OC)c2)cc1 [Compound C9]
- pIC50: < 5.00
- Inhibition percentage [6]: 3.734% and −2.05% and −2.9843%
- Inhibition percentage [7]: 8.521% and 5.537% and 14.34%

SMILES: CN1C(=O)Cc2cc(S(=O)(=O)CCC(=O)NCCc3ccccc3)ccc21 [Compound C10]
- pIC50: < 5.00
- Inhibition percentage [8]: 1.692% and 1.059% and 6.715%
- Inhibition percentage [4]: −33.073% and −31.3707% and −29.8413%

SMILES: CC(=O)c1ccccc1NC(=O)c1c(O)c2c3c(sc2[nH]c1=O)C[C@H](C)CC3 [Compound C11]
- pIC50: < 5.00
- Inhibition percentage [9]: 21.46% and 27.01% and 27.99%
- Inhibition percentage [2]: 11.37% and 16.25% and 12.52%

SMILES: COc1cc(/C=N/NC(=O)CN2C(=O)N[C@H]3NC(=O)N[C@@H]32)cc(OC)c1O [Compound C12]
- pIC50: < 5.00

SMILES: COc1ccc(NC(=O)c2c(O)c3c4c(sc3[nH]c2=O)C[C@@H](C)CC4)cc1Cl [Compound C13, (7S)—N-(3-chloro-4-methoxyphenyl)-4-hydroxy-7-methyl-2-oxo-5,6,7,8-tetrahydro-1H-[1]benzothiolo[2,3-b]pyridine-3-carboxamide]
- pIC50: 6.35
- inhibitory activity of glucagon receptor (in words, from cAMP response curves): have the activity
- inhibitory activity of glucagon receptor (in words, from cAMP response curves) (listed as A1): good inhibitory activity of glucagon receptor
- Inhibition percentage [9]: 98.37% and 95.2799% and 96.15%
- Inhibition percentage (concentration gradient LogM −5, triplicate, HEK293, cAMP HTRF, listed as A1): 98.37 percentage and 95.2799 percentage and 96.15 percentage
- Inhibition percentage [1]: 87.84% and 83.28% and 83.51%
- Inhibition percentage (concentration gradient LogM −5.477121, triplicate, HEK293, cAMP HTRF, listed as A1): 87.84 percentage and 83.28 percentage and 83.51 percentage
- Inhibition percentage [8]: 75.44% and 83.24% and 79.3%
- Inhibition percentage (concentration gradient LogM −5.954243, triplicate, HEK293, cAMP HTRF, listed as A1): 75.44 percentage and 83.24 percentage and 79.3 percentage
- Inhibition percentage [5]: 7.62% and −2.135% and −0.781%

SMILES: CSc1cccc(NC(=O)c2c(O)c3sccc3[nH]c2=O)c1 [Compound C14]
- pIC50: 6.37
- inhibitory activity of glucagon receptor (in words, from cAMP response curves): have the activity
- inhibitory activity of glucagon receptor (in words, from cAMP response curves) (listed as A2): good inhibitory activity of glucagon receptor
- Inhibition percentage [9]: 103.2945% and 102.1097% and 103.2736%
- Inhibition percentage (concentration gradient LogM −5, triplicate, HEK293, cAMP HTRF, listed as A2): 103.2945 percentage and 102.1097 percentage and 103.2736 percentage
- Inhibition percentage [1]: 106.1285% and 105.9119% and 107.3553%
- Inhibition percentage (concentration gradient LogM −5.477121, triplicate, HEK293, cAMP HTRF, listed as A2): 106.1285 percentage and 105.9119 percentage and 107.3553 percentage
- Inhibition percentage [8]: 84.32% and 92.48% and 91.05%
- Inhibition percentage (concentration gradient LogM −5.954243, triplicate, HEK293, cAMP HTRF, listed as A2): 84.32 percentage and 92.48 percentage and 91.05 percentage
- Inhibition percentage (concentration gradient LogM −6.431364, HEK293 cells, glucagon peptide segment, HTRF cAMP, triplicate columns): 40.16% and 62.74% and 47.65%
- Inhibition percentage (concentration gradient LogM −6.431364, triplicate, HEK293, cAMP HTRF, listed as A2): 40.16 percentage and 62.74 percentage and 47.65 percentage

SMILES: COc1ccc2cc(C(=O)NCCNc3ccc(C)nn3)[nH]c2c1 [Compound C15]
- pIC50: < 5.00
- Inhibition percentage [9]: 2.451% and 0.02571% and 3.529%
- Inhibition percentage [4]: −19.189% and −13.1875% and −18.6652%
- Inhibition percentage [5]: 3.911% and 12.71% and 11.16%

SMILES: O=C(CCNC(=O)c1ccccc1)NCc1cccc(NC(=O)C2CC2)c1 [Compound C16]
- pIC50: < 5.00
- Inhibition percentage [4]: −5.221% and −7.477% and −6.358%
- Inhibition percentage [7]: −7.7562% and −6.836% and −15.6271%

SMILES: CSc1cccc(NC(=O)CCNS(=O)(=O)c2ccc(NC(C)=O)cc2)c1 [Compound C17]
- pIC50: < 5.00

SMILES: O=C(COC(=O)CCNS(=O)(=O)c1ccc(Cl)cc1)NC(=O)NCc1ccco1 [Compound C18]
- pIC50: < 5.00
- Inhibition percentage [8]: −6.593% and −12.6979% and −7.936%

SMILES: O=C(CNC(=O)NCCCOC1CCCCC1)Nc1ccc(F)c(F)c1 [Compound C19]
- pIC50: < 5.00

SMILES: O=C(COC(=O)CCNC(=O)c1ccsc1)NC(=O)NCc1cccs1 [Compound C20]
- pIC50: < 5.00

SMILES: O=C(CSc1nc2ccccc2[nH]1)NC(=O)Nc1ccc2c(c1)OCO2 [Compound C21]
- pIC50: < 5.00

SMILES: O=C(CNC(=O)NCCCN1CCCCCC1=O)Nc1ccc(F)c(F)c1 [Compound C22]
- pIC50: < 5.00
- Inhibition percentage [6]: −5.735% and 1.578% and −3.875%

SMILES: Cc1ccc(-c2csc(NC(=O)c3ccc4c(c3)NC(=O)CS4)n2)c(C)c1 [Compound C23]
- Inhibition percentage [9]: 75.66% and 75.14% and 57.58%

SMILES: CNC(=O)Cc1ccccc1NC(=O)NCCC(=O)NC1CCCC1 [Compound C24]
- pIC50: < 5.00

SMILES: CC(C)(C)NC(=O)NC(=O)CSc1nc(-c2cccs2)c(-c2cccs2)[nH]1 [Compound C25]
- pIC50: < 5.00

SMILES: COc1cc(NC(=O)CNC(=O)CNC(=O)c2cccs2)c(OC)cc1Cl [Compound C26]
- pIC50: < 5.00

SMILES: O=C(CCNC(=O)NC1CCCCC1)NNc1ccccc1C(F)(F)F [Compound C27]
- pIC50: < 5.00
- Inhibition percentage [2]: −24.7315% and −29.8299% and −20.459%

SMILES: CS(=O)(=O)NCCOc1ccc(S(=O)(=O)NCCOc2ccccc2)cc1 [Compound C28]
- pIC50: < 5.00

SMILES: Cn1c(CNC(=O)c2cccs2)nnc1SCC(=O)Nc1ccc(Cl)cc1 [Compound C29]
- pIC50: < 5.00

SMILES: CNC(=O)NC(=O)CSc1nc2cc(-c3ccc(F)cc3)sc2c(=O)n1N [Compound C30]
- pIC50: < 5.00
